{"source": "patent US20040171566A1", "about": "“Antisense modulation of p38 mitogen activated protein kinase expression” (priority 1999, published 2004)", "key": {"[1]": {"system": "ovalbumin (OVA)-induced airway hyperresponsiveness", "assay": "Mouse model of allergic inflammation (OVA), intratracheal oligonucleotide administration", "format": "in vivo", "conditions": "OVA mice", "protocol": "In the mouse model of allergic inflammation, mice were sensitized and challenged with aerosolized chicken ovalbumin (OVA). Airway responsiveness was assessed by inducing airflow obstruction with a methacholine aerosol using a noninvasive method. This methodology utilized unrestrained conscious mice that are placed into the main chamber of a plthysmograph (Buxco Electronics, Inc., Troy, N.Y.). Pressure differences between this chamber and a reference chamber were used to extrapolate minute volume, breathing frequency and enhanced pause (Penh). […] This parameter closely correlates with lung resistance as measured by traditional invasive techniques using ventilated animals (Hamelmann et al., 1997). […]\nFor intratracheal administration of ISIS 101757, female Balb/c mice (Charles Rivers Laboratory, Taconic Farms, N.Y.) were maintained in micro-isolator cages housed in a specific pathogen-free (SPF) facility. […] Animals were analyzed about 24 hours following the last nebulization using the Buxco electronics Biosystem. Lung function (Penh), lung histology (cell infiltration and mucus production), target mRNA reduction in the lung, inflammation (BAL cell type & number, cytokine levels), spleen weight and serum AST/ALT were determined. […]"}, "[2]": {"conditions": "mouse, in vivo", "quoted_text": "For the aerosol studies, the protocol described above was slightly modified. Male Balb/c mice were injected IP with OVA (20 μg) in aluminum hydroxide on days 0 and 14. Aerosol dosing was performed with nebulized sterile saline, antisense oligonucleotide or mismatched control oligonucleotide using 25, 125 and 250 μg/ml solutions (5 mg/kg) for 30 min. on days 14-20 in a closed chamber. Aerosol lung challenge was carried out with nebulized saline or 1% OVA for 20 min. on days 18, 19 and 20. BAL fluid was collected at 24 hr post-last lung challenge (cell differentials) or at 2-12 h post-challenge (cytokine analysis). AHR was measured 24 hours after OVA challenge. Mice were exposed to aerosolized methacholine 24 hr post-last lung challenge from 2-80 mg/ml for 3 min. until a 200% increase in Penh was achieved."}, "p38α": {"system": "p38α", "assay": "p38α knock-down in mouse T cell line EL4, Western blotting", "format": "cell-based"}}, "data": [{"substance": "ISIS 101757: antisense oligonucleotide targeted to mouse p38α, SEQ ID NO 177; 2′-MOE gapmer, all phosphorothioate linkages (antisense AGGTGCTCAGGACTCCATTT; all phosphorothioate, sugars by position and methylation of C not given here; 2'-MOE gapmer)", "values": [{"measurement": "Penh response to methacholine (50 mg/ml) challenge", "setting": "[1]", "value": "dose-dependent inhibition"}, {"measurement": "Oligonucleotide levels in lung tissue sufficient to achieve the pharmacological effects", "setting": "[2]", "value": "up to 1 μg/g"}, {"measurement": "p38α knock-down effect", "setting": "p38α", "value": "confirmed"}]}]}
